Test results reported in ChEMBL document CHEMBL5120746, “Novel 5-fluorouracil sensitizers for colorectal cancer therapy: Design and synthesis of S1P receptor 2 (S1PR2) antagonists” (Eur J Med Chem, 2022).

How the values were obtained:
[1] = target: T1, Sphingosine 1-phosphate receptor 2 (Homo sapiens, UniProt O95136); experiment: Binding affinity to S1PR2 (unknown origin) by SPR assay
[2] = test system: HCT-116; experiment: Reversal of 5-FU resistance against 5-FU resistant DPD expressed human HCT-116 cells assessed as reduction in cell viability incubated for 48 hrs in presence of 5-FU by MTT assay; type: functional, cell-based; conditions: HCT-116, 48 h
[3] = test system: SW620/5-FU; experiment: Reversal of 5-FU resistance against human SW620/5-FU cells assessed as reduction in cell viability incubated for 48 hrs in presence of 5-FU by MTT assay; type: functional, cell-based
[4] = target: T1, Sphingosine 1-phosphate receptor 2; experiment: Antagonist activity at S1PR2 in human SW620/5-FU cells assessed as reduction of DPD-catalyzed 5-FU degradation by measuring intracellular 5-FU level at 20 uM measured after 24 hrs by HPLC-UV analysis; type: functional, cell-based; conditions: filed as antagonist
[5] = test system: HCT-116; experiment: Antitumor activity against DPD expressed human HCT-116 cells xenografted in SPF nude mouse assessed as tumor growth inhibition at 15 mg/kg, iv QD for 20 days and measured every 4 days; type: functional; conditions: HCT-116, 480 h, time 20 day, read-out: TGI
[6] = test system: SW620/5-FU; experiment: Antitumor activity against human SW620/5-FU cells xenografted in SPF nude mouse assessed as reduction in tumor weight at 15 mg/kg, iv QD for 21 days; type: functional; parameters: scale not given: the % may be the effect or the level left; conditions: time 21 day
[7] = test system: SW620/5-FU; experiment: Antiproliferative activity against human SW620/5-FU cells assessed as reduction in cell viability incubated for 48 hrs by MTT assay; type: functional, cell-based
[8] = test system: HCT-116; experiment: Antiproliferative activity against 5-FU resistant DPD expressed human HCT-116 cells assessed as reduction in cell viability incubated for 48 hrs by MTT assay; type: functional, cell-based; conditions: HCT-116, 48 h
[9] = test system: SW620/5-FU; experiment: Antitumor activity against human SW620/5-FU cells xenografted in SPF nude mouse assessed as tumor growth inhibition at 15 mg/kg, iv QD for 21 days and measured every 4 days; type: functional; conditions: 504 h, time 21 day, read-out: TGI

T1 sequence (O95136 whole entry): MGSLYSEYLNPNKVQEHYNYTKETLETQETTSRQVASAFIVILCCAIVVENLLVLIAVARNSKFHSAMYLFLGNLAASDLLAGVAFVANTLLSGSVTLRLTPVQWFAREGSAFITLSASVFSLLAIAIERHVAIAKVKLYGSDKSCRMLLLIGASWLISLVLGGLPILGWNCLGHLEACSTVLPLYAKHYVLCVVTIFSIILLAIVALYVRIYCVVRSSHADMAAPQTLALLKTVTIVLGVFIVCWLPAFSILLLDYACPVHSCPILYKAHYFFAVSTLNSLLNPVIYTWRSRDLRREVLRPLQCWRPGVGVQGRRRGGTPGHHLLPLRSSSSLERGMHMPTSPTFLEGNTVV

| SMILES | Kd [1] [µM] | EC50 [2] [µM] | EC50 [3] [µM] | also measured |
| --- | --- | --- | --- | --- |
| CCCc1cc(NNC(=O)Nc2cc(Cl)nc(Cl)c2)nc2c1c(C(F)(F)F)nn2C | 0.89 | 38.2 | 11.7 |  |
| Cn1ncc2c(-c3ccc(F)cc3)cc(NNC(=O)Nc3cc(F)cc(F)c3)nc21 | 3.98 | 46.2 | 47.4 |  |
| CC(C)c1cc(NNC(=O)Nc2cc(Cl)nc(Cl)c2)nc2c1c(C(F)(F)F)nn2C | 1.25 | 27.2 | 19.1 |  |
| CCN(CC)c1cc(NC(=O)NNc2cc(-c3ccc(F)cc3)c3cnn(C)c3n2)cc(Cl)n1 | 3.15 | 29.4 | 37 |  |
| Cc1nn(C)c2nc(NNC(=O)Nc3cc(Cl)nc(Cl)c3)cc(-c3ccc(Cl)s3)c12 | 1.98 | 42.1 | 29.4 |  |
| Cc1nn(C)c2nc(NNC(=O)Nc3cc(Cl)nc(Cl)c3)cc(-c3ccc(F)cc3)c12 | 0.98 | 25.2 | 17.4 |  |
| COc1ccc(-c2cc(NNC(=O)Nc3cc(Br)nc(Br)c3)nc3c2cnn3C)cc1 | 6.32 | 45.2 | 54.1 |  |
| COc1ccc(-c2cc(NNC(=O)Nc3cc(Cl)nc(OC(C)C)c3)nc3c2cnn3C)cc1 | 2.32 | 39.8 | 47.1 |  |
| Cc1nn(C)c2nc(NNC(=O)Nc3cc(Cl)nc(Cl)c3)cc(-c3ccco3)c12 | 6.52 | 69.2 | > 100 |  |
| Cc1c(Cc2ccccc2)c(NNC(=O)Nc2cc(Cl)nc(Cl)c2)nc2c1cnn2C | 0.87 | 13.6 | 21.4 |  |
| Cn1nc(C(F)(F)F)c2c(-c3ccccc3)cc(NNC(=O)Nc3cc(Cl)nc(Cl)c3)nc21 | 0.94 | 18.1 | 13.1 |  |
| CCCOc1cc(NC(=O)NNc2cc(-c3ccc(OC)cc3)c3cnn(C)c3n2)cc(Cl)n1 | 3.14 | 33.2 | 37.2 |  |
| Cc1nn(C)c2nc(NNC(=O)Nc3cc(Cl)nc(Cl)c3)cc(-c3ccccc3)c12 | 5.32 | 80 | 22.9 |  |
| Cc1cc(NNC(=O)Nc2cc(Cl)nc(Cl)c2)nc2c1c(C)nn2C | 11 | > 100 | > 100 |  |
| COc1cc(NC(=O)NNc2cc(-c3ccc(F)cc3)c3cnn(C)c3n2)cc(OC)c1OC | 4.44 | 45.3 | 39.2 |  |
| COc1ccc(-c2cc(NNC(=O)Nc3cc(Cl)nc(Cl)c3)nc3c2c(C)nn3C)cc1 | 1.02 | 82.3 | 9.7 |  |
| Cn1ncc2c(-c3ccc(F)cc3)cc(NNC(=O)Nc3cc(Cl)cc(Cl)c3)nc21 | 4.98 | 39.1 | 54.3 |  |

| SMILES | Kd [1] [µM] | EC50 [2] [µM] | EC50 [3] [µM] | also measured |
| --- | --- | --- | --- | --- |
| Cc1nn(C)c2nc(NNC(=O)Nc3cc(Cl)nc(Cl)c3)cc(C3CC3)c12 | 3.65 | 67.7 | 80.8 |  |
| CCCc1cc(NNC(=O)Nc2cc(Cl)nc(Cl)c2)nc2c1cnn2C | 1.4 | 76.2 | 38.7 |  |
| CCCCOc1cc(NC(=O)NNc2cc(-c3ccc(OC)cc3)c3cnn(C)c3n2)cc(Cl)n1 | 4.15 | 36.5 | 39.2 |  |
| COc1ccc(-c2cc(NNC(=O)Nc3cc(Cl)nc(OC)c3)nc3c2cnn3C)cc1 | 1.98 | 54.2 | 48.8 |  |
| COc1cc(NC(=O)NNc2cc(-c3ccc(F)cc3)c3cnn(C)c3n2)cc(Cl)n1 | 1.65 | 75.3 | 24.1 |  |
| Cc1nn(C)c2nc(NNC(=O)Nc3cc(Cl)nc(Cl)c3)cc(C(C)C)c12 | 1.96 | 18.3 | 58.6 | Activity [4]: 1.75 µM |
| CCCc1cc(NNC(=O)Nc2cc(Cl)nc(Cl)c2)nc2c1c(C)nn2C | 2.36 | 72.2 | 40.8 |  |
| Cc1nn(C)c2nc(NNC(=O)Nc3cc(Cl)nc(Cl)c3)cc(C3CCCCC3)c12 | 2.01 | 38 | 22 |  |
| Cn1ncc2c(-c3ccc(F)cc3)cc(NNC(=O)Nc3cc(Cl)nc(OCCF)c3)nc21 | 2.79 | 37.2 | 29.3 |  |
| COc1ccc(-c2cc(NNC(=O)Nc3cc(Cl)nc(Cl)c3)nc3c2cnn3C)cc1 | 0.52 | 12.3 | 18.4 |  |
| Cc1ccc(NC(=O)NNc2cc(-c3ccc(F)cc3)c3cnn(C)c3n2)cc1Nc1nccc(-c2cccnc2)n1 | 5.96 | 39.1 | 33.1 |  |
| Cn1ncc2c(-c3ccccc3)cc(NNC(=O)Nc3cc(Cl)nc(Cl)c3)nc21 | 1.02 | 6.24 | 76.9 |  |
| Cn1ncc2c(-c3ccc(F)cc3)cc(NNC(=O)N/C=C/c3cccnc3)nc21 | 4.12 | 36.2 | 49.3 |  |
| CCCCOc1cc(NC(=O)NNc2cc(-c3ccc(F)cc3)c3cnn(C)c3n2)cc(Cl)n1 | 2.65 | 49.4 | 29.3 |  |
| O=c1[nH]cc(F)c(=O)[nH]1 [FLUOROURACIL] |  |  |  | inhibition in vivo at 15 mg/kg [5]: 20.3%; Activity [6]: 27.23%; EC50 [7]: > 1000 µM; EC50 [8]: > 1000 µM; inhibition in vivo at 15 mg/kg [9]: 21.2% |
| CC(C)c1cc(NNC(=O)Nc2cc(Cl)nc(Cl)c2)nc2c1cnn2C | 0.78 | 17.2 | 50.1 |  |
| COc1cc(NC(=O)NNc2cc(-c3ccccc3)c3cnn(C)c3n2)cc(Cl)n1 | 3.64 | 31.2 | 28.7 |  |
